As a reminder, the IC50 is the point on the concentration scale where inhibition reaches its midpoint. High values mean a need for much substance, low ones inhibition by little substance.

The text below walks through data of patent US6413982B1, “4-substituted quinoline derivatives” (Neurogen Corporation, priority 1999, dated 2002).

The test addresses T1, NK-3 receptor (Homo sapiens, UniProt P29371).
T1 construct: expressed in transfected cells; total cellular membranes
T1 sequence (P29371 1-465): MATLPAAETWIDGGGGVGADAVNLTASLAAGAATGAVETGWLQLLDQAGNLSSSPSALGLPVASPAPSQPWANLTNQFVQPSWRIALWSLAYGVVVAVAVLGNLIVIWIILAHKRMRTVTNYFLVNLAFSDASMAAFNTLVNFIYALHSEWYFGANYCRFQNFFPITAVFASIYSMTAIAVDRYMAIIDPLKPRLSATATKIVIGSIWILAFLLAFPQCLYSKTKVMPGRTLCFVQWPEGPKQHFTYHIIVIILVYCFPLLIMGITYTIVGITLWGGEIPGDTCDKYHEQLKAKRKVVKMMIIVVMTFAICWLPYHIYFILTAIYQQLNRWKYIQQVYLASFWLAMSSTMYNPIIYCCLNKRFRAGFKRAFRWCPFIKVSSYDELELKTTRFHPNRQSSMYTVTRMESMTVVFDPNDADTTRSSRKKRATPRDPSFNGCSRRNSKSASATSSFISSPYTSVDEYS
The test is described as follows: Assay for NK-3 receptor binding activity. The conditions noted are these: displacement of 125I-methylPhe7-neurokinin B, membranes of CHO cells expressing cloned human NK-3 receptor, 2 hours at 4° C. On the procedure: The following assay is a standard assay for NK-3 receptor binding activity. Assays are performed as described in Krause et al (Proc. Natl. Acad. Sci. USA 94: 310-315, 1997). The NK-3 receptor complementary DNA is cloned from human hypothalamic RNA using standard procedures. The receptor cDNA is inserted into the expression vector pM^2 to transfect the mammalian Chinese hamster ovary cell line, and a stably expressing clonal cell line is isolated, characterized and used for the current experiments. Cells are grown in minimal essential medium alpha containing 10% fetal bovine serum and 250 μg/ml G418. Cells are liberated from cell culture plates with No-zyme (PBS base, JRH Biosciences), and harvested by low speed centrifugation. […]
Receptor binding assays contain a total volume of 200 μl containing 50 μg membrane protein, 0.05-0.15 nM 125I-methylPhe7-neurokinin B, drug or blocker in TBS containing 1.0 mg/ml bovine serum albumen, 0.2 mg/ml bacitracin, 20 μg/ml leupeptin and 20 μg/ml chymostatin. […] After filtration of the incubation mixture, filters are rinsed 4 times with ice-cold TBS containing 0.01% sodium dodecyl sulfate and radioactivity is quantitated in a β-plate scintillation counter. […] Data are collected in duplicate determinations, averaged, and the percent inhibition of total specific binding is calculated. […]

As to `CCC1(c2ccccc2)CN=C(c2c(C)c(-c3ccccc3)nc3ccccc23)N1` (centres unmarked) [Example 2], the IC50 amounted to 0.3 nM.
As to `CCC1(c2ccccc2)CN=C(c2c(OC)c(-c3ccccc3)nc3ccccc23)N1` (centres unmarked) [Example 1, 5-Ethyl-5-phenyl-2-(3-methoxy-2-phenylquinolin-4-yl)-imidazoline], the half-inhibitory concentration (IC50) stood at 19 nM.
